# Patent US12297213B2, “Metal hydroxide complex comprising modified multilayer hydroxide structure comprising active ingredient and method of manufacturing same” (CNPHARM CO., LTD., priority 2018, dated 2025)
# Legend:
# COL3A1 mRNA = assay: COL3A1 (type 3 collagen) mRNA expression by qRT-PCR in human dermal fibroblasts; type: cell-based; conditions: positive control at 5.0 ng/ml, mean±SD
# Procedure: (§1) For the in-vitro collagen production increase test of Example 3 (hereinafter, referred to as “JL-101 powder”), normal human dermal fibroblasts (HDFs) were used. In order to set the test solution concentration of the sample, HDFs were treated with the sample material for 24 hr and the concentration range in which cytotoxicity was not observed was confirmed through a cytotoxicity test. HDFs were treated with 'JL-101 powder' at the set test solution concentration in the same manner, and thus the expression levels of COL1A1 and COL3A1 mRNA, which are collagen genes, were compared and analyzed using real-time PCR (RT-PCR). […] The expression level of a collagen gene was determined by measuring the expression levels of a COL1A1 gene, which is a representative component of type 1 collagen, and of a COL3A1 gene, which is a representative component of type 3 collagen, using quantitative real-time PCR (qRT-PCR) (Peter, 2008). […] The concentration and purity (A260/A280 and A260/A230 ratio) of total mRNA were measured using a MaestroNano® microvolume spectrophotometer (Maestrogen, Las Vegas, NV, USA), and only total mRNA having high purity of 2.0 or more was selected. […] Mix Plus (Solis BioDyne, Estonia), and the expression of the corresponding gene was analyzed using Line-Gene K software (Bioer Technology Co. Ltd., Hangzhou, China). […]
# COL1A1 mRNA = assay: COL1A1 (type 1 collagen) mRNA expression by qRT-PCR in human dermal fibroblasts; type: cell-based; conditions: positive control at 5.0 ng/ml, mean±SD
# Procedure: as §1
substance,measurement,setting,value
TGF-β,increase of expression of COL3A1 mRNA compared to the negative control,COL3A1 mRNA,22.93±6.21%
same,increase of expression of COL1A1 mRNA compared to the negative control,COL1A1 mRNA,219.65±7.25%
